From US20200163336A1, “CYCLIC AMINE COMPOUND AND PEST CONTROL AGENT” (Nippon Soda Co., Ltd., priority 2017, published 2020)

How the values were obtained:
Tetranychus kanzawai = assay: Efficacy test against Tetranychus kanzawai (spray on mung beans); assay type: in vivo; conditions: 125 ppm by mass, sprayed on mung beans; female adults; 25° C., humidity 65%; 10 days after spraying
Tetranychus urticae = assay: Efficacy test against Tetranychus urticae (spray on common beans); assay type: in vivo; conditions: 125 ppm by mass, sprayed on common beans; female adults; 25° C., humidity 65%; 10 days after spraying

Structure (SMILES) | acaricidal rate (Tetranychus kanzawai) | acaricidal rate (Tetranychus urticae)
CSCC1CCN(C(=O)c2cc(C#N)c(-c3ccc(C(F)(F)F)cc3)nc2C)CC1 [a-90] | a-90% | a-90%
CCSCC1CCN(C(=O)c2cc(C#N)c(-c3ccc(C(F)(F)F)cc3)nc2CSC)CC1 [a-190] |  | a-190%
CCSCC1CCN(C(=O)c2cc(C(N)=S)c(-c3ccc(C(F)(F)F)cc3)nc2C(F)(F)C(F)(F)F)CC1 [b-90] |  | b-90%
